Measurements as given in patent publication US9481687B2, “IRAK inhibitors and uses thereof” (Nimbus Iris, Inc., priority 2012, dated 2016).
Where a name gives a salt, the structure may show the parent alone.

Key:
IRAK4 = biological target: T1, IRAK4 (Homo sapiens, UniProt Q9NWZ3); assay: IRAK-4 activity inhibition assay (Caliper); type: biochemical; details: 3.5 nM IRAK4, 37 μM ATP, 1.5 μM Peptide 8
T1 construct: purchased CARNA Bioscience 09-145
T1 sequence (Q9NWZ3 1-460): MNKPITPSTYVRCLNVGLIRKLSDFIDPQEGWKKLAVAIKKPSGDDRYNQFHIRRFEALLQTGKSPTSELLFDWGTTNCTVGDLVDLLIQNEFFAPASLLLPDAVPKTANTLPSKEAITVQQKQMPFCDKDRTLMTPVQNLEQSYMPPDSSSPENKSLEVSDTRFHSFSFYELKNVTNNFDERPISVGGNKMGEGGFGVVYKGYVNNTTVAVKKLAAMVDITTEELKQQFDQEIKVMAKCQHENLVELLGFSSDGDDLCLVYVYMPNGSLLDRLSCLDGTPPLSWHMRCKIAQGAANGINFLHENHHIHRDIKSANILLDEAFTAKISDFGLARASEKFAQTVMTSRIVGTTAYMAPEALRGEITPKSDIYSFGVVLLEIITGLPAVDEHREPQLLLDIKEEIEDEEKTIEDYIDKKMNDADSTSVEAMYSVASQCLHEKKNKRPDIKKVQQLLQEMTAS
Method: A 1× kinase base buffer was prepared from 50 mM HEPES, pH 7.5 and 0.0015% Brij-35. A stop buffer was prepared from 100 mM HEPES, pH 7.5, 0.015% Brij-35, 0.2% Coating Reagent #3, and 50 mM EDTA.
Test compound was diluted to 50× of the final desired highest inhibitor concentration in reaction by 100% DMSO. 100 ul of this compound dilution was transferred to a well in a 96-well plate.
Test compound was serially diluted by transferring 30 μl to 60 μl of 100% DMSO in the next well and so forth for a total of 10 concentrations. 100 μl of 100% DMSO was added to two empty wells for no compound control and no enzyme control in the same 96-well plate.
A new 96-well plate was marked as intermediate plate. 5 μl of compound serial dilution was transferred from source plate to the corresponding wells of the intermediate plate. 45 μl of 1× kinase base buffer (KB buffer) was added to each well of the intermediate plate. The intermediate plate was placed for 10 min on a shaker.
5 μl of each well was transferred from the 96-well intermediate plate to a 384-well plate in duplicates. For example, A1 of the 96-well plate is transferred to A1 and A2 of the 384-well plate. A2 of the 96-well plate is transferred to A3 and A4 of the 384-well plate, and so on.
IRAK4 and DTT in 1× kinase base buffer was added. The 2.5× enzyme mix contained 8.8 nM IRAK4 and 5 mM DTT.
Peptide 8, ATP, MgCl2 and MnCl2 were added in the 1× kinase base buffer. The 2.5× peptide mix contained 3.75 μM peptide 8, 92.5 μM ATP, 12.5 mM MgCl2 and 2.5 mM MnCl2.
Assay plate already contained 5 μl of compound in 10% DMSO. Added 10 μl of 2.5× enzyme solution to each well of the 384-well assay plate, except no enzyme control wells. The final concentration of IRAK4 in reaction was 3.5 nM. Added 10 μl of 1× kinase base buffer to no enzyme control wells in the assay plate. Incubated at room temperature for 10 min.
Added 10 μl of 2.5× peptide solution to each well of the 384-well assay plate. The final concentration of Peptide 8 and ATP was 1.5 μM and 37 μM, respectively. Incubated at 28° C. for 40 minutes. Added 25 μl of stop buffer to stop reaction. Collected data on Caliper.
Copied conversion % data from Caliper program. Converted conversion % values to percent inhibition values. Percent inhibition=(max−conversion %)/(max−min)*100, where “max” means the conversion % of DMSO control and “min” means the conversion % of no enzyme control.

THP-1 cells [1] = assay: LPS-induced cytokine production assay, TNFα; type: cell-based; details: Homo sapiens, 300 ng/mL LPS, 5 hours, read-out: TNF (5 h)
Method: (§1) Provided compounds were also assayed in an LPS (Lipopolysacharide) or R848 (TLR-7 agonist) induced cytokine (e.g. TNFα and IL8) production assay in THP-1 cells, human peripheral blood mononuclear cells (hPBMC), and whole blood. The exemplary protocol for this assay in THP-1 cells was as follows below.
(§2) THP-1 cells from ATCC (TIB-202) were cultured in RPMI Medium 1640 (Invitrogen, Cat No. A10491-01), 10% fetal bovine serum (Invitrogen, Cat No. 10099141, Lot No. 8172882) containing 100 U/mL Penicillin, 100 μg/mL streptomycin (Invitrogen, Cat No. 15140-122), and 50 uM 2-Mercaptoethanol (Invitrogen, Cat No. 21985023). LPS-EK ultra pure (Invivogen, Cat No. tlrl-peklps) was used to induce IL8 and TNFα production, that is detected in the cell culture supernatant by IL8 HTRF kit (Cisbio, Cat No. 62IL8PEB) and TNFα HTRF kit (Cisbio, Cat No. 62TNFPEB), as per manufacturer instructions. Cells were cultured in 96 well assay plates at 100,000 cells per well, and compounds diluted in final 0.3% DMSO were pre-incubated with cells for 1 hour prior to stimulation with 300 ng/mL LPS. Cytokine production in cell supernatant was measured at 5 hours for TNFα and IL8 production, and for 16 hours for IL8 production and assessment of cell viability.

THP-1 cells [2] = assay: LPS-induced cytokine production assay, IL8; type: cell-based; details: Homo sapiens, 300 ng/mL LPS, 16 hours, read-out: IL-8 (16 h)
Method: as §1, §2

| IC50 (IRAK4) [nM] | IC50 (THP-1 cells [1]) [nM] | IC50 (THP-1 cells [2]) [nM] | Compound |
| --- | --- | --- | --- |
| 100 to 1000 |  |  | N[C@H]1CC[C@H](Nc2ncnc3sc4ccccc4c23)CC1 [I-11, (1r,4r)-N1-(benzo[4,5]thieno[2,3-d]pyrimidin-4-yl)cyclohexane-1,4-diamine hydrochloride] |
| 100 to 1000 |  |  | CCNC(=O)c1ccc2sc3ncnc(N[C@H]4CC[C@H](N(C)C)CC4)c3c2c1 [I-17, 4-(((1r,4r)-4-(dimethylamino)cyclohexyl)amino)-N-ethylbenzo[4,5]thieno[2,3-d]pyrimidine-6-carboxamide] |
| 100 to 1000 | ≥ 1000 | ≤ 1000 | CN(C)[C@H]1CC[C@H](Nc2ncnc3sc4ccc(CO)cc4c23)CC1 [I-7, (4-(((1r,4r)-4-(dimethylamino)cyclohexyl)amino)benzo[4,5]thieno[2,3-d]pyrimidin-6-yl)methanol] |
| ≤ 100 | ≥ 1000 | ≤ 1000 | CN(CC(=O)N1CCCC1)[C@H]1CC[C@H](Nc2ncnc3sc4ccccc4c23)CC1 [I-3, 2-(((1r,4r)-4-(benzo[4,5]thieno[2,3-d]pyrimidin-4-ylamino)cyclohexyl)(methyl)amino)-1-(pyrrolidin-1-yl)ethanone] |
| ≤ 100 | ≤ 1000 | ≤ 1000 | c1ccc2c(c1)sc1ncnc(N[C@H]3CC[C@H](N4CCOCC4)CC3)c12 [I-4, N-((1r,4r)-4-morpholinocyclohexyl)benzo[4,5]thieno[2,3-d]pyrimidin-4-amine] |
| ≤ 100 | ≥ 1000 | ≤ 1000 | CN(C)[C@H]1CC[C@H](Nc2ncnc3sc4ccc(C(N)=O)cc4c23)CC1 [I-6, 4-(((1r,4r)-4-(dimethylamino)cyclohexyl)amino)benzo[4,5]thieno[2,3-d]pyrimidine-6-carboxamide] |
| 100 to 1000 |  |  | c1ccc2c(c1)sc1ncnc(O[C@H]3CC[C@H](N4CCOCC4)CC3)c12 [I-16, 4-((1r,4r)-4-(benzo[4,5]thieno[2,3-d]pyrimidin-4-yloxy)cyclohexyl)morpholine] |
| ≤ 100 | ≤ 1000 | ≤ 1000 | CCOC(=O)c1ccc2sc3ncnc(N[C@H]4CC[C@H](N(C)C)CC4)c3c2c1 [I-5, ethyl 4-(((1r,4r)-4-(dimethylamino)cyclohexyl)amino)benzo[4,5]thieno[2,3-d]pyrimidine-6-carboxylate] |
| ≥ 10000 |  |  | CCOC(=O)c1cccc2sc3ncnc(N[C@H]4CC[C@H](N(C)C)CC4)c3c12 [I-22, ethyl 4-(((1r,4r)-4-(dimethylamino)cyclohexyl)amino)benzo[4,5]thieno[2,3-d]pyrimidine-5-carboxylate] |
| 100 to 1000 |  |  | CNC(=O)c1ccc2sc3ncnc(N[C@H]4CC[C@H](N(C)C)CC4)c3c2c1 [I-14, 4-(((1r,4r)-4-(dimethylamino)cyclohexyl)amino)-N-methylbenzo[4,5]thieno[2,3-d]pyrimidine-6-carboxamide] |
| 100 to 1000 | ≥ 1000 | ≤ 1000 | CN[C@H]1CC[C@H](Nc2ncnc3sc4ccccc4c23)CC1 [I-9, (1r,4r)-N1-(benzo[4,5]thieno[2,3-d]pyrimidin-4-yl)-N4-methylcyclohexane-1,4-diamine] |
| 100 to 1000 |  |  | OCCc1ccc2sc3ncnc(O[C@H]4CC[C@H](N5CCOCC5)CC4)c3c2c1 [I-13, 2-(4-(((1r,4r)-4-morpholinocyclohexyl)oxy)benzo[4,5]thieno[2,3-d]pyrimidin-6-yl)ethanol] |
| 1000 to 10000 |  |  | CN(C)C(=O)c1ccc2sc3ncnc(N[C@H]4CC[C@H](N5CCOCC5)CC4)c3c2c1 [I-20, N,N-dimethyl-4-(((1r,4r)-4-morpholinocyclohexyl)amino)benzo[4,5]thieno[2,3-d]pyrimidine-6-carboxamide] |
| ≤ 100 | ≤ 1000 | ≤ 1000 | CN(C)[C@H]1CC[C@H](Nc2ncnc3sc4ccccc4c23)CC1 [I-2, (1r,4r)-N1-(benzo[4,5]thieno[2,3-d]pyrimidin-4-yl)-N4,N4-dimethylcyclohexane-1,4-diamine] |
| 1000 to 10000 |  |  | NC(=O)Cc1ccc2sc3ncnc(N[C@H]4CC[C@H](N5CCOCC5)CC4)c3c2c1 [I-18, 2-(4-(((1r,4r)-4-morpholinocyclohexyl)amino)benzo[4,5]thieno[2,3-d]pyrimidin-6-yl)acetamide] |
| 100 to 1000 |  |  | OCc1ccc2sc3ncnc(N[C@H]4CC[C@H](N5CCOCC5)CC4)c3c2c1 [I-10, (4-(((1r,4r)-4-morpholinocyclohexyl)amino)benzo[4,5]thieno[2,3-d]pyrimidin-6-yl)methanol] |
| 1000 to 10000 |  |  | CN(C)C(=O)c1ccc2sc3ncnc(N[C@H]4CC[C@H](N(C)C)CC4)c3c2c1 [I-19, 4-(((1r,4r)-4-(dimethylamino)cyclohexyl)amino)-N,N-dimethylbenzo[4,5]thieno[2,3-d]pyrimidine-6-carboxamide] |
| 1000 to 10000 |  |  | CCOC(=O)Cc1ccc2sc3ncnc(N[C@H]4CC[C@H](N5CCOCC5)CC4)c3c2c1 [I-21, Ethyl 2-(4-(((1r,4r)-4-morpholinocyclohexyl)amino)benzo[4,5]thieno[2,3-d]pyrimidin-6-yl)acetate] |
| ≤ 100 | ≤ 1000 | ≤ 1000 | NC(=O)c1ccc2sc3ncnc(N[C@H]4CC[C@H](N5CCOCC5)CC4)c3c2c1 [I-1, 4-(((1r,4r)-4-morpholinocyclohexyl)amino)benzo[4,5]thieno[2,3-d]pyrimidine-6-carboxamide] |
| 100 to 1000 |  |  | CCOC(=O)c1ccc2sc3ncnc(N[C@H]4CC[C@H](N5CCOCC5)CC4)c3c2c1 [I-8, Ethyl 4-(((1r,4r)-4-morpholinocyclohexyl)amino)benzo[4,5]thieno[2,3-d]pyrimidine-6-carboxylate] |
| 100 to 1000 |  |  | CN(C)[C@H]1CC[C@H](Oc2ncnc3sc4ccccc4c23)CC1 [I-12, (1r,4r)-4-(benzo[4,5]thieno[2,3-d]pyrimidin-4-yloxy)-N,N-dimethylcyclohexanamine] |
| ≥ 10000 |  |  | CN(C)[C@H]1CC[C@H](Nc2ncnc3sc4cccc(CO)c4c23)CC1 [I-23, (4-(((1r,4r)-4-(dimethylamino)cyclohexyl)amino)benzo[4,5]thieno[2,3-d]pyrimidin-5-yl)methanol] |

| Compound | IC50 (IRAK4) [nM] | IC50 (THP-1 cells [1]) [nM] | IC50 (THP-1 cells [2]) [nM] |
| --- | --- | --- | --- |
| OCCc1ccc2sc3ncnc(N[C@H]4CC[C@H](N5CCOCC5)CC4)c3c2c1 [I-15, 2-(4-(((1r,4r)-4-morpholinocyclohexyl)amino)benzo[4,5]thieno[2,3-d]pyrimidin-6-yl)ethanol] | 100 to 1000 |  |  |
